{"source": "ChEMBL document CHEMBL6121030", "about": "“Asymmetric Synthesis, Structure Determination, and Biologic Evaluation of Isomers of TLAM as PFK1 Inhibitors” (ACS Med Chem Lett, 2025)"}
{"tested_on": "HeLa", "assay": "Effect on mitochondrial respiration in human HeLa cells assessed as increase in OCR/ECAR ratio incubated for 24 hrs by XFe96 extracellular flux analyzer assay; call rule not given here", "assay_type": "functional, cell-based"}
{"smiles": "O=C(O)[C@H]1C2C=CC(C2)[C@H]1C(=O)N1CCc2c([nH]c3ccccc23)[C@H]1C(F)(F)F", "note": "(stereo partly specified)", "Activity": "Active; Significantly Increased"}
{"tested_on": "not listed separately", "assay": "Inhibition of recombinant PFK1 (unknown origin) extracted from baculovirus-infected Sf9 cells incubated for 45 min by ADP-Glo kinase assay", "parameters": "species or system Homo sapiens", "units": {"IC50": "µM"}}
{"smiles": "O=C(O)[C@H]1C2C=CC(C2)[C@H]1C(=O)N1CCc2c([nH]c3ccccc23)[C@@H]1C(F)(F)F", "note": "(stereo partly specified)", "IC50": 25}
{"smiles": "O=C(O)[C@H]1C2C=CC(C2)[C@H]1C(=O)N1CCc2c([nH]c3ccccc23)[C@H]1C(F)(F)F", "note": "(stereo partly specified)", "IC50": 2.1}
{"smiles": "O=C(O)C1C2C=CC(C2)C1C(=O)N1CCc2c([nH]c3ccccc23)C1C(F)(F)F", "note": "(stereo unspecified)", "IC50": 2.7}
{"smiles": "O=C(O)[C@@H]1C2C=CC(C2)[C@@H]1C(=O)N1CCc2c([nH]c3ccccc23)[C@@H]1C(F)(F)F", "note": "(stereo partly specified)", "IC50": 4.7}
{"smiles": "O=C(O)[C@@H]1C2C=CC(C2)[C@@H]1C(=O)N1CCc2c([nH]c3ccccc23)[C@H]1C(F)(F)F", "note": "(stereo partly specified)", "IC50": "> 100"}
